Read-outs that look alike come from different tables or passages of the source.

In series [1] the target is T1, human IDO1 (Homo sapiens (Human), UniProt P14902). As to the kind of experiment: IDO1 enzymatic inhibition assay. Format: biochemical.
The target of series [2] is T1, human IDO1. Kind of series: IDO1 inhibition in HEK293/IDO1 transfected cells. Format: cell-based. To be noted: HEK293/TRIPZ-IDO1 cells.
The target of series [3] is TDO2 (Homo sapiens, UniProt P48775). Kind of series: TDO2 enzymatic inhibition assay. Format: biochemical. The conditions noted are these: 500 μM L-Tryptophan, means N≥3; read-out: TDO IC50.
Sequence of TDO2 (P48775 whole entry, looked up): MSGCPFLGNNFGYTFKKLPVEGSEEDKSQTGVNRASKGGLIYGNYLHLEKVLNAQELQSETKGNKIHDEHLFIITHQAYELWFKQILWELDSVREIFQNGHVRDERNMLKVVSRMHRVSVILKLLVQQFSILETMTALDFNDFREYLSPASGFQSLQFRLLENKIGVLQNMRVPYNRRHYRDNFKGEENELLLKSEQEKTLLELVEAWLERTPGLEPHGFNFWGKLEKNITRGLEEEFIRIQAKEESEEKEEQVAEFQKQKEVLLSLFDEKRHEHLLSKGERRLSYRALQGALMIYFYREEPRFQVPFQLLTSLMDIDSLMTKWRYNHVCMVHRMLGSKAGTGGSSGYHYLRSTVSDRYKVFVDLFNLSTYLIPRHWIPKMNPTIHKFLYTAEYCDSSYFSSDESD
Series [4] in a line: Pharmacokinetics studies in mice (plasma and brain concentration). Format: in vivo. To be noted: for Kp at 0.5 h / Kp at 2 h: brain/plasma. The procedure:
In order to assess the pharmacokinetics of the IDO1 inhibitors of the present application, two inhibitors were administered to mice at 20 mg/kg via PO (G29), or IP (G28). For a preliminary pharmacokinetic profile, three animals were sacrificed per time point at 30 minutes and two hours post-dose. For a full pharmacokinetic profile, three animals were sacrificed per time point at 15 minute, 30 minutes, 1, 2, 4, 6, 8, and 24 hours post-dose.
Blood samples were collected via cardiac puncture, the mice were perfused with phosphate buffered saline (PBS) and the brains were collected. The blood and brain samples were protein precipitated with ice-cold acetonitrile and the concentration of the test compound in the resulting supernatant was quantified using LC/MS/MS. For the full pharmacokinetic profile, the parameters were computed using the “PK” package with the R statistical computing software using a non-compartmental analysis.

The nature of series [5]: Tissue protein binding (micro-equilibrium dialysis). Format: in vitro ADME, mice. To be noted: 6 hours at 37° C.
Setting [6] is: recombinant human IDO1, 200 μM L-Tryptophan, means N≥3.
The mark [7] stands for this setting: 24 h after doxycycline induction, means N≥3.

T1 sequence (P14902 whole entry): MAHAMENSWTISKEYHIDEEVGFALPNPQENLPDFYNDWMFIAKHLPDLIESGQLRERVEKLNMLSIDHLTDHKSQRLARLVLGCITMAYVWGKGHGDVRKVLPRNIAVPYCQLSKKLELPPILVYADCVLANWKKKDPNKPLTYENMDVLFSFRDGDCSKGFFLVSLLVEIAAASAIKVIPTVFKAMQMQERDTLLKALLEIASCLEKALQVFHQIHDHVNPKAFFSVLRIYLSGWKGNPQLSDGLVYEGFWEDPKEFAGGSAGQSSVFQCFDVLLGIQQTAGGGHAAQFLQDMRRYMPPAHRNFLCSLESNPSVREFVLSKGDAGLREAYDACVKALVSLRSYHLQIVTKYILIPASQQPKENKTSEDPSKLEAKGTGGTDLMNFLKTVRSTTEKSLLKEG

With `Brc1ccc2[nH]c(-c3cnc[nH]3)cc2c1` [Compound 6, 5-bromo-2-(1H-imidazol-5-yl)-1H-indole], the IC50 in series [1] (setting [6]) worked out at 30000 nM.

Turning to `Brc1ccc2[nH]c(-c3cncn3Cc3ccccc3)cc2c1` [Compound 9a, 2-(1-benzyl-1H-imidazol-5-yl)-5-bromo-1H-indole], in series [1] (IDO1 IC50, versus compound 6), the “increase in potency versus compound 6” value was “two-fold”.

For the molecule `COc1ccc(Cn2cncc2-c2cc3cc(Br)ccc3[nH]2)cc1` [Compound 9d, 5-bromo-2-(1-(4-methoxybenzyl)-1H-imidazol-5-yl)-1H-indole], the IC50 in series [1] (setting [6]) amounted to 21000 nM. A half-maximal effect in series [2] (setting [7]) (EC50) was put at 4300 nM.

In the case of `Oc1ccccc1-c1cncn1Cc1cc2cc(Br)ccc2[nH]1` [Compound 10c, 2-(1-((5-bromo-1H-indol-2-yl)methyl)-1H-imidazol-5-yl)phenol], the IC50 in series [3] was found to be 158000 nM.

As for `Brc1ccc2[nH]c(Cn3cncc3-c3ccc[nH]3)cc2c1` [Compound G28, 2-((5-(1H-pyrrol-2-yl)-1H-imidazol-1-yl)methyl)-5-bromo-1H-indole], the IC50 in series [1] (recombinant human IDO1) turned out to be 310 nM; in series [1] (setting [6]) it was 309 nM. Also, the EC50 in series [2] is 470 nM; in series [2] (setting [7]), 467 nM. The Tissue Concentration Plasma Mean was 1880 ng/mL in series [4] (20 mg/kg IP, 0.25 hr); 1840 ng/mL in series [4] (20 mg/kg IP, 0.5 hr); 1410 ng/mL in series [4] (20 mg/kg IP, 1 hr); 562 ng/mL in series [4] (20 mg/kg IP, 2 hr); 133 ng/mL in series [4] (20 mg/kg IP, 4 hr); “BQL” in series [4] (20 mg/kg IP, 6 hr). The “Tissue Concentration Plasma Mean” value in series [4] (20 mg/kg IP, 8 hr) was “BQL”. The AUC(0-inf) worked out at 14200 ng·h/mL in series [4] (mouse, 20 mg/kg IP, Brain) and 2920 ng·h/mL in series [4] (mouse, 20 mg/kg IP, Plasma). Moreover, the AUC(0-t) was found to be 9870 ng·h/mL in series [4] (mouse, 20 mg/kg IP, Brain) and 2910 ng·h/mL in series [4] (mouse, 20 mg/kg IP, Plasma). Moreover, the Cmax in series [4] (mouse, 20 mg/kg IP, Brain) was found to be 4020 ng/mL; in series [4] (mouse, 20 mg/kg IP, Plasma), 1880 ng/mL. Moreover, the Tmax in series [4] (mouse, 20 mg/kg IP, Brain) came out at 30 min; in series [4] (mouse, 20 mg/kg IP, Plasma), 15 min. Also, the half-life was 142 min in series [4] (mouse, 20 mg/kg IP, Brain) and 49.8 min in series [4] (mouse, 20 mg/kg IP, Plasma). For the same molecule, the concentration at 0.25 h in series [4] (mouse, brain, ip, 20 mg/kg, 20 mg/kg IP, 0.25 hr, read-out: Tissue Concentration Brain Mean) was determined as 1660 ng/g. Moreover, the concentration at 0.5 h in series [4] (mouse, brain, ip, 20 mg/kg, 20 mg/kg IP, 0.5 hr, read-out: Tissue Concentration Brain Mean) stood at 4020 ng/g. In series [4] (mouse, brain, ip, 20 mg/kg, 20 mg/kg IP, 1 hr, read-out: Tissue Concentration Brain Mean), the concentration at 1 h turned out to be 3520 ng/g. Besides, in series [4] (mouse, brain, ip, 20 mg/kg, 20 mg/kg IP, 2 hr, read-out: Tissue Concentration Brain Mean), the concentration at 2 h amounted to 2760 ng/g. Further, in series [4] (mouse, brain, ip, 20 mg/kg, 20 mg/kg IP, 4 hr, read-out: Tissue Concentration Brain Mean), the concentration at 4 h was 1370 ng/g. Besides, the concentration at 6 h in series [4] (mouse, brain, ip, 20 mg/kg, 20 mg/kg IP, 6 hr, read-out: Tissue Concentration Brain Mean) was found to be 552 ng/g. The concentration at 8 h in series [4] (mouse, brain, ip, 20 mg/kg, 20 mg/kg IP, 8 hr, read-out: Tissue Concentration Brain Mean) was 510 ng/g. The fraction unbound at 6 h in series [5] (pooled brain homogenate in PBS (1:3 m:v), pooled mouse brain homogenized with PBS (1:3), read-out: % FU Brain) amounted to 0.0161; in series [5] (pooled mouse plasma, read-out: fu,plasma / % FU Plasma), 0.0117.

Regarding `Fc1ccc2[nH]c(Cn3cncc3-c3ccc[nH]3)cc2c1` [Compound G29, 2-((5-(1H-pyrrol-2-yl)-1H-imidazol-1-yl)methyl)-5-fluoro-1H-indole], in series [1] (setting [6]), the IC50 came to 230 nM. For the same molecule, the EC50 in series [2] (setting [7]) was 250 nM. For the same molecule, the concentration at 0.5 h is 2390 ng/mL in series [4] (mouse, brain, po, 20 mg/kg, 20 mg/kg PO, 0.5 Hr, individual mouse M1, read-out: Brain concentration M1); 869 ng/mL in series [4] (mouse, brain, po, 20 mg/kg, 20 mg/kg PO, 0.5 Hr, individual mouse M2, read-out: Brain concentration M2); 2560 ng/mL in series [4] (mouse, brain, po, 20 mg/kg, 20 mg/kg PO, 0.5 Hr, individual mouse M3, read-out: Brain concentration M3); 1940 ng/mL in series [4] (mouse, brain, po, 20 mg/kg, 20 mg/kg PO, 0.5 Hr, read-out: Brain concentration Mean); 2660 ng/mL in series [4] (mouse, plasma, po, 20 mg/kg, 20 mg/kg PO, 0.5 Hr, individual mouse M1, read-out: Plasma concentration M1); 1610 ng/mL in series [4] (mouse, plasma, po, 20 mg/kg, 20 mg/kg PO, 0.5 Hr, individual mouse M2, read-out: Plasma concentration M2). Further, the concentration at 0.5 h came out at 2740 ng/mL in series [4] (mouse, plasma, po, 20 mg/kg, 20 mg/kg PO, 0.5 Hr, individual mouse M3, read-out: Plasma concentration M3) and 2330 ng/mL in series [4] (mouse, plasma, po, 20 mg/kg, 20 mg/kg PO, 0.5 Hr, read-out: Plasma concentration Mean). Also, the concentration at 2 h turned out to be 3450 ng/mL in series [4] (mouse, brain, po, 20 mg/kg, 20 mg/kg PO, 2 Hr, individual mouse M4, read-out: Brain concentration M4); 2050 ng/mL in series [4] (mouse, brain, po, 20 mg/kg, 20 mg/kg PO, 2 Hr, individual mouse M5, read-out: Brain concentration M5); 2750 ng/mL in series [4] (mouse, brain, po, 20 mg/kg, 20 mg/kg PO, 2 Hr, read-out: Brain concentration Mean); 629 ng/mL in series [4] (mouse, plasma, po, 20 mg/kg, 20 mg/kg PO, 2 Hr, individual mouse M4, read-out: Plasma concentration M4); 408 ng/mL in series [4] (mouse, plasma, po, 20 mg/kg, 20 mg/kg PO, 2 Hr, individual mouse M5, read-out: Plasma concentration M5); 519 ng/mL in series [4] (mouse, plasma, po, 20 mg/kg, 20 mg/kg PO, 2 Hr, read-out: Plasma concentration Mean). Also, the Kp at 0.5 h in series [4] (mouse, po, 20 mg/kg, 20 mg/kg PO, 0.5 Hr, individual mouse M1, read-out: B/P Ratio M1) stood at 0.9; in series [4] (mouse, po, 20 mg/kg, 20 mg/kg PO, 0.5 Hr, individual mouse M2, read-out: B/P Ratio M2), 0.5; in series [4] (mouse, po, 20 mg/kg, 20 mg/kg PO, 0.5 Hr, individual mouse M3, read-out: B/P Ratio M3), 0.9; in series [4] (mouse, po, 20 mg/kg, 20 mg/kg PO, 0.5 Hr, read-out: B/P Ratio Mean) it was 0.8. The Kp at 2 h in series [4] (mouse, po, 20 mg/kg, 20 mg/kg PO, 2 Hr, individual mouse M4, read-out: B/P Ratio M4) was determined as 5.5; in series [4] (mouse, po, 20 mg/kg, 20 mg/kg PO, 2 Hr, individual mouse M5, read-out: B/P Ratio M5), 5; in series [4] (mouse, po, 20 mg/kg, 20 mg/kg PO, 2 Hr, read-out: B/P Ratio Mean), 5.3.

A word on the IC50: it is the midpoint of a concentration-inhibition curve. Broadly, the EC50 is the concentration that produces a half-maximal response. Lower therefore signals an effect from little substance. For orientation: AUC(0-inf) means the area under the concentration-time curve extrapolated to infinity. A higher AUC(0-inf) goes with high exposure. As usually defined, the AUC(0-t) is the area under the concentration-time curve up to a stated or last time point. Low readings indicate less exposure, high ones more exposure. In general, Cmax refers to the highest concentration seen after dosing. Broadly, the Tmax is the time at which the peak concentration occurs. What is called half-life is the time in which the quantity being followed falls by half. Lower therefore signals rapid decline.

(Values after patent US11572354B2, “Inhibitor of indoleamine 2,3-dioxygenase-1 and methods of manufacture and use thereof” (UNIVERSITY HEALTH NETWORK, priority 2018, dated 2023).)
